# Data from patent publication US11446287B2, “Compounds and methods for EP300 or CBP modulation and indications therefor” (Opna Immuno-Oncology SA, priority 2019, dated 2022).
# Target: T1, Recombinant human CBP containing the bromodomain (CBP-BD (1043-1159)) (Homo sapiens, UniProt Q92793)
# T1 construct: Recombinant human CBP bromodomain (CBP-BD (1043-1159)); made in house; host or cells: E. coli BL21-CodonPlus (DE3), modified pET vector
# Assay: CBP Alphascreen binding assay
# Details: read-out: CREBBP (CBP) IC50
# Method in brief: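 Buffer: 50 mM HEPES pH 7.5, 50 mM NaCl, 0.01% BSA, 0.01% Triton X-100, 2 mM DTT. The signal was normalised to plate controls and fitted with a four-parameter curve to give IC50.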
# T1 sequence (Q92793 1081-1197): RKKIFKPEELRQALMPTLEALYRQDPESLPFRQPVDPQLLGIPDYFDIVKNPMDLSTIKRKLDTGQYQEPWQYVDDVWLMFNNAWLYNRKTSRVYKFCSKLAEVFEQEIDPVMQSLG
row,Structure (SMILES),IC50 [µM]
1,"CCOc1cc(C(=O)O)cc(OCC)c1-n1cc(-c2cnn(CC3CC3)c2)c2ncc(-c3c(C)noc3C)cc21 [P-0264, 4-(3-(1-(cyclopropylmethyl)-1H-pyrazol-4-yl)-6-(3,5-dimethylisoxazol-4-yl)-1H-pyrrolo[3,2-b]pyridin-1-yl)-3,5-diethoxybenzoic acid]",0.0001 to 1
2,"Cc1noc(C)c1-c1cnc2c(c1)c(-c1ccc(C(=O)O)cc1OC(F)(F)F)cn2[C@H]1CCOC1 [P-0285, (S)-4-(5-(3,5-dimethylisoxazol-4-yl)-1-(tetrahydrofuran-3-yl)-1H-pyrrolo[2,3-b]pyridin-3-yl)-3-(trifluoromethoxy)benzoic acid]",0.0001 to 1
3,"Cc1noc(C)c1-c1cnc2c(c1)c(-c1ccc(C(=O)O)cc1OC(F)(F)F)cn2-c1ccncc1Cl [P-0253, 4-(1-(3-chloropyridin-4-yl)-5-(3,5-dimethylisoxazol-4-yl)-1H-pyrrolo[2,3-b]pyridin-3-yl)-3-(trifluoromethoxy)benzoic acid]",0.0001 to 1
4,"Cc1noc(C)c1-c1cnc2c(c1)c(-c1ccc(C(=O)O)cc1OC(F)(F)F)cn2C1CCN(S(C)(=O)=O)CC1 [P-0292, 4-(5-(3,5-dimethylisoxazol-4-yl)-1-(1-(methylsulfonyl)piperidin-4-yl)-1H-pyrrolo[2,3-b]pyridin-3-yl)-3-(trifluoromethoxy)benzoic acid]",0.0001 to 1
5,"Cc1noc(C)c1-c1cnc2c(c1)c(-c1ccc(C(=O)O)cc1OC1CCC1)cn2-c1ccccc1 [P-0276, 3-cyclobutoxy-4-(5-(3,5-dimethylisoxazol-4-yl)-1-phenyl-1H-pyrrolo[2,3-b]pyridin-3-yl)benzoic acid]",0.0001 to 1
6,"Cc1noc(C)c1-c1cnc2c(-c3cc(C(=O)O)ccc3Cl)c(C(F)(F)F)n([C@@H](C)c3ccccn3)c2c1 [P-0257, (S)-4-chloro-3-(6-(3,5-dimethylisoxazol-4-yl)-1-(1-(pyridin-2-yl)ethyl)-2-(trifluoromethyl)-1H-pyrrolo[3,2-b]pyridin-3-yl)benzoic acid]",0.0001 to 1
7,"CCOc1cc(C(=O)O)cc(OCC)c1-n1cc(CC2CCC2)c2ncc(-n3c(C)nnc3C)cc21 [P-0270, 4-(3-(cyclobutylmethyl)-6-(3,5-dimethyl-4H-1,2,4-triazol-4-yl)-1H-pyrrolo[3,2-b]pyridin-1-yl)-3,5-diethoxybenzoic acid]",1 to 8
8,"Cc1cc(C#N)ccc1-n1cc(-c2ccc(C(=O)O)cc2OC(F)(F)F)c2cc(-c3c(C)noc3C)cnc21 [P-0310, 4-(1-(4-cyano-2-methylphenyl)-5-(3,5-dimethylisoxazol-4-yl)-1H-pyrrolo[2,3-b]pyridin-3-yl)-3-(trifluoromethoxy)benzoic acid]",0.0001 to 1
9,"CCOc1cc(C(=O)O)cc(OCC)c1-n1cc(-c2cnn(C3CC3)c2)c2ncc(-c3c(C)noc3C)cc21 [P-0265, 4-(3-(1-cyclopropyl-1H-pyrazol-4-yl)-6-(3,5-dimethylisoxazol-4-yl)-1H-pyrrolo[3,2-b]pyridin-1-yl)-3,5-diethoxybenzoic acid]",0.0001 to 1
10,"CCCn1nc(C(=O)O)c(N)c1-c1cn(-c2ccc(F)cc2F)c2ncc(-c3c(C)noc3C)cc12 [P-0303, 4-amino-5-(1-(2,4-difluorophenyl)-5-(3,5-dimethylisoxazol-4-yl)-1H-pyrrolo[2,3-b]pyridin-3-yl)-1-propyl-1H-pyrazole-3-carboxylic acid]",0.0001 to 1
11,"Cc1nn(C(F)F)cc1-n1cc(-c2ccc(C(=O)O)cc2OC(F)(F)F)c2cc(-c3c(C)noc3C)cnc21 [P-0288, 4-(1-(1-(difluoromethyl)-3-methyl-1H-pyrazol-4-yl)-5-(3,5-dimethylisoxazol-4-yl)-1H-pyrrolo[2,3-b]pyridin-3-yl)-3-(trifluoromethoxy)benzoic acid]",0.0001 to 1
12,"Cc1noc(C)c1-c1cnc2c(c1)c(-c1ccc(C(=O)O)cc1OC(F)(F)F)cn2-c1c(F)cccc1C#N [P-0254, 4-(1-(2-cyano-6-fluorophenyl)-5-(3,5-dimethylisoxazol-4-yl)-1H-pyrrolo[2,3-b]pyridin-3-yl)-3-(trifluoromethoxy)benzoic acid]",0.0001 to 1
13,"Cc1noc(C)c1-c1cnc2c(c1)c(-c1ccc(C(=O)O)cc1OC(F)F)cn2-c1ccccc1 [P-0273, 3-(difluoromethoxy)-4-(5-(3,5-dimethylisoxazol-4-yl)-1-phenyl-1H-pyrrolo[2,3-b]pyridin-3-yl)benzoic acid]",0.0001 to 1
14,"Cc1noc(C)c1-c1cnc2c(c1)c(-c1ccc(C(=O)O)cc1OC(F)(F)F)cn2-c1cnn(CC(C)(C)O)c1 [P-0294, 4-(5-(3,5-dimethylisoxazol-4-yl)-1-(1-(2-hydroxy-2-methylpropyl)-1H-pyrazol-4-yl)-1H-pyrrolo[2,3-b]pyridin-3-yl)-3-(trifluoromethoxy)benzoic acid]",0.0001 to 1
15,"CCOc1cc(C(=O)O)cc(OCC)c1-n1cc(-c2cnn(CCC#N)c2)c2ncc(-c3c(C)noc3C)cc21 [P-0266, 4-(3-(1-(2-cyanoethyl)-1H-pyrazol-4-yl)-6-(3,5-dimethylisoxazol-4-yl)-1H-pyrrolo[3,2-b]pyridin-1-yl)-3,5-diethoxybenzoic acid]",0.0001 to 1
16,"Cc1noc(C)c1-c1cnc2c(c1)c(-c1ccc(-c3nn[nH]n3)cc1)cn2C(c1ccccn1)C1CCCC1 (stereo not drawn) [P-0024, 4-(3-(4-(2H-tetrazol-5-yl)phenyl)-1-(cyclopentyl(pyridin-2-yl)methyl)-1H-pyrrolo[2,3-b]pyridin-5-yl)-3,5-dimethylisoxazole]",1 to 8
17,"Cc1noc(C)c1-c1cnc2c(c1)c(-c1ccc(C(=O)O)cc1OC(F)(F)F)cn2-c1cnccc1O [P-0252, 4-(5-(3,5-dimethylisoxazol-4-yl)-1-(4-hydroxypyridin-3-yl)-1H-pyrrolo[2,3-b]pyridin-3-yl)-3-(trifluoromethoxy)benzoic acid]",0.0001 to 1
18,"CCOc1cc(C(=O)O)cc(OCC)c1-n1cc(C2CCC(F)(F)CC2)c2ncc(-c3c(C)noc3C)cc21 [P-0271, 4-(3-(4,4-difluorocyclohexyl)-6-(3,5-dimethylisoxazol-4-yl)-1H-pyrrolo[3,2-b]pyridin-1-yl)-3,5-diethoxybenzoic acid]",0.0001 to 1
19,"Cc1noc(C)c1-c1cnc2c(-c3ccc(F)cc3F)cn(-c3c(OC(C)C)cc(C(=O)O)cc3OC(C)C)c2c1 [P-0269, 4-(3-(2,4-difluorophenyl)-6-(3,5-dimethylisoxazol-4-yl)-1H-pyrrolo[3,2-b]pyridin-1-yl)-3,5-diisopropoxybenzoic acid]",0.0001 to 1
20,"Cc1noc(C)c1-c1cnc2c(-c3ccccc3)cn(-c3cc(C(=O)O)ccc3OC(F)(F)F)c2c1 [P-0274, 3-(6-(3,5-dimethylisoxazol-4-yl)-3-phenyl-1H-pyrrolo[3,2-b]pyridin-1-yl)-4-(trifluoromethoxy)benzoic acid]",0.0001 to 1
21,"Cc1noc(C)c1-c1cnc2c(c1)c(-c1ccc(C(=O)O)cc1OC(F)(F)F)cn2-c1ccc(S(C)(=O)=O)cc1 [P-0282, 4-(5-(3,5-dimethylisoxazol-4-yl)-1-(4-(methylsulfonyl)phenyl)-1H-pyrrolo[2,3-b]pyridin-3-yl)-3-(trifluoromethoxy)benzoic acid]",0.0001 to 1
22,"CCOC(=O)c1cc(-c2cn(-c3ccc(F)cc3F)c3ncc(-c4c(C)noc4C)cc23)c(OCC)cc1O [P-0248, ethyl 5-(1-(2,4-difluorophenyl)-5-(3,5-dimethylisoxazol-4-yl)-1H-pyrrolo[2,3-b]pyridin-3-yl)-4-ethoxy-2-hydroxybenzoate]",8 to 1000
23,"Cc1noc(C)c1-c1cnc2c(c1)c(-c1ccc(C(=O)O)cc1OC(F)(F)F)cn2-c1ccsc1 [P-0315, 4-(5-(3,5-dimethylisoxazol-4-yl)-1-(thiophen-3-yl)-1H-pyrrolo[2,3-b]pyridin-3-yl)-3-(trifluoromethoxy)benzoic acid]",0.0001 to 1
24,"Cc1noc(C)c1-c1cnc2c(-c3cccc(C(=O)O)c3Cl)c(C(F)(F)F)n([C@@H](C)c3ccccn3)c2c1 [P-0247, (S)-2-chloro-3-(6-(3,5-dimethylisoxazol-4-yl)-1-(1-(pyridin-2-yl)ethyl)-2-(trifluoromethyl)-1H-pyrrolo[3,2-b]pyridin-3-yl)benzoic acid]",0.0001 to 1
25,"Cc1noc(C)c1-c1cnc2c(c1)c(-c1ccc(C(=O)O)nc1)cn2C(c1ccccn1)C1CCCC1 (stereo not drawn) [P-0026, 5-(1-(cyclopentyl(pyridin-2-yl)methyl)-5-(3,5-dimethylisoxazol-4-yl)-1H-pyrrolo[2,3-b]pyridin-3-yl)picolinic acid]",0.0001 to 1
26,"Cc1noc(C)c1-c1cnc2c(c1)c(-c1cnn(CC(=O)O)c1)cn2-c1ncccc1C#CC1CC1 [P-0272, 2-(4-(1-(3-(cyclopropylethynyl)pyridin-2-yl)-5-(3,5-dimethylisoxazol-4-yl)-1H-pyrrolo[2,3-b]pyridin-3-yl)-1H-pyrazol-1-yl)acetic acid]",0.0001 to 1
27,"CC(=O)N1CCC(n2cc(-c3ccc(C(=O)O)cc3OC(F)(F)F)c3cc(-c4c(C)noc4C)cnc32)CC1 [P-0291, 4-(1-(1-acetylpiperidin-4-yl)-5-(3,5-dimethylisoxazol-4-yl)-1H-pyrrolo[2,3-b]pyridin-3-yl)-3-(trifluoromethoxy)benzoic acid]",0.0001 to 1
28,"Cc1noc(C)c1-c1cnc2c(c1)c(-c1ccc(C(=O)O)cc1OC(F)(F)F)cn2-c1ccc(C#N)cc1 [P-0313, 4-(1-(4-cyanophenyl)-5-(3,5-dimethylisoxazol-4-yl)-1H-pyrrolo[2,3-b]pyridin-3-yl)-3-(trifluoromethoxy)benzoic acid]",0.0001 to 1
29,"CCOc1cc(C(=O)O)c(F)c(OCC)c1-c1cn(-c2ccc(F)cc2F)c2ncc(-c3c(C)noc3C)cc12 [P-0297, 4-(1-(2,4-difluorophenyl)-5-(3,5-dimethylisoxazol-4-yl)-1H-pyrrolo[2,3-b]pyridin-3-yl)-3,5-diethoxy-2-fluorobenzoic acid]",0.0001 to 1
30,"Cc1noc(C)c1-c1cnc2c(c1)c(-c1ccc(C(=O)O)cc1OCC(F)F)cn2-c1ccncc1Cl [P-0306, 4-(1-(3-chloropyridin-4-yl)-5-(3,5-dimethylisoxazol-4-yl)-1H-pyrrolo[2,3-b]pyridin-3-yl)-3-(2,2-difluoroethoxy)benzoic acid]",0.0001 to 1
